Where two headings read alike, the source gives them in different places.
Legend:
[1] = tested on: Non-Small Lung Cancer Cells (NSLCs); assay: Cancer migration (wound healing) assay; assay type: cell-based; conditions: for concentration at which cell migration was completely impaired: 20 mM calcium medium (FIG. 3)
Description: The ability of 1,2,3-triazole derivatives according to the disclosure to inhibit cancer cell migration and proliferation in vitro can be measured, e.g., by a wound healing assay (Rodriguez et al., in Cell Migration: Developmental Methods and Protocols, Web et al., Guan ed. Humana Press 294, 23-29). This assay is based on the observation that, upon the creation of an artificial gap on a confluent cancer cell monolayer, the cells on the edge of the created gap will start migrating and proliferating until new cell-cell contacts are established (EXAMPLE 3).
Non-Small Lung Cancer Cells (NSLCs) migration rate was assessed in an in vitro wound healing assay. This assay is based on the observation that, upon the creation of an artificial gap on a confluent cell monolayer, the cells on the edge of the created gap will start migrating and proliferating until new cell-cell contacts are established.
A confluent cell layer is a prerequisite for starting this assay. Gap formation is done manually with a scrapper and cell proliferation and migration is determined recording a time-lapse video for 20 hr. with a time interval of 30 min. The microscopic pictures are manually analyzed for obtaining information about the proliferation and migration characteristics of the cultured cells and the image analysis detects the cell covered area.
NSLCs were cultured in Eagle's Minimum Essential Medium (ATCC-formulated medium, Catalog No. 30-2003) containing fetal bovine serum at 10% during several periods. Wound healing assays with supplemented medium containing 1,2,3-triazole derivatives were performed to evaluate the inhibitory effect on proliferation and migration of cancer cells.
In order to simulate as close as possible the in vivo cancer microenvironment, human plasma and calcium were added to the cell culture system to provide the hemostatic factors normally present in the cancer stroma. The previous day, cells were seeded with 10% FBS at a number that would provide 90% confluence the next day. On Day 0, a scratch (“a wound”) was performed in the middle of the well and the 10% FBS medium was replaced with 20% plasma, 20 mM calcium medium, with or without Derivative 1. 10% FBS medium was used as control in these experiments. “Wound healing” or closure of the scratch was assessed over a period of 4 days, and cell number in the wound area was quantified for each condition. Increasing amount of Derivative 1 (LTI6) was used to attain a dose-response curve.
The cell function effect of Derivative 1 was compared with Tranexamic Acid (TNA) and Caproic Acid (CA), commercially available and widely used anti-metastasis drugs.

[2] = tested on: fibrinolysis mediated by tPA (plasminogen activation by tPA); assay: Fibrinolytic assay: one-step spectrophotometric clot lysis in human plasma; assay type: biochemical; conditions: for IC50: concentration at which 50% of total fibrinolysis mediated by tPA is inhibited, human ACD plasma, clot triggered by TF, absorbance 340 nm, read-out: Anti-fibrinolytic (SERPIN) Activity IC50; for inhibition of fibrinolysis mediated by tPA (in words): different concentrations, FIGS. 2B-2D
Description: Fibrinolytic activity in human plasma was determined by a one-step spectrophotometric method (Gidron et al. (1978) J. Clin. Pathol. 31(1):54-57) with minor modifications (see EXAMPLE 2). In this method, fibrin clot formation in anticoagulant citrate dextrose (ACD) plasma samples obtained from healthy volunteers is triggered by tissue factor (TF) and can be quantified by spectrometry as a significant increase in basal plasma absorbance at 340 nm.
As shown in FIGS. 2A-2D, in the absence of tPA, plasma absorbance remains permanently elevated.
Fibrinolytic activity in human plasmas in the presence of derivatives according to the disclosure was determined by a one-step spectrophotometric method.
Fibrin clot formation in the anticoagulant acid citrate dextrose (ACD)-treated plasma obtained from healthy volunteers is triggered by tissue factor (TF) (Thromborel S, Siemens Healthineers) and quantifies by spectrophotometry at 340 nm (using a Molecular Devices SpectraMax® M2e Multimode Microplate Reader). When recombinant human Tissue Plasminogen Activator (tPA, final concentration of 5.2 μg/ml) is simultaneously added, fibrinolysis of the clot can be determined.
Fresh blood was extracted from healthy volunteers. ACD, to reach a 10% concentration, was instantly added to the extracted blood, to prevent any unwanted coagulation. After that, blood was centrifuged for 15 min at 1,000 g. Plasma was clearly separated from red blood cells. 3 mL aliquots of aspirated plasma were immediately frozen at −20° C.
4 mL of ddH2O was added to a vial of Thromborel S and mixed thoroughly for 2 min. and left at 4° C. 500 μL TF aliquots were used for each experiment.
Representative derivatives of the present disclosure (Nos. 1, 5, and 7) were diluted in DMSO (those with Boc) or ddH2O (those with HCl) to a final concentration of 10 mM. A solution containing 1 M Tris HCl, pH 7.5 (Fisher BioReagent) (Buffer A), 0.110 g of CaCl2) in 10 mL of ddH2O (Buffer B), and tPA (Abcam, 1.3 mg/mL added into the diluted derivative solution, final concentration in serum was 5.2 μg/mL), and the derivative was prepared in a total volume of 75 μL and added to untreated, flat, clear Costar® 96-well plates in triplicate. Absorbance at 340 nm at 37° C. for 30 min was recorded every 15 sec. The plates were shaken every 3 sec in between readings. Controls for basal plasma absorbance, basal coagulation absorbance and basal fibrinolytic activity absorbance were performed in every assay.
FIG. 2A show the results a control experiment displaying the ability of TF to cause fibrin clot formation in the absence and presence of t-PA. TF was able to cause fibrin clot formation evaluated as a significant increase of the basal plasma absorbance at 340 nm.

[3] = tested on: Non-Small Lung Cancer Cells (NSLCs); assay: Trypan Blue Exclusion Test of cancer cell viability; assay type: cell-based; conditions: for IC50: defined in text as concentration of derivative causing greater than 90% of the cells to die, read-out: Anti-Cancer Activity (Trypan Blue Exclusion Assay) IC50
Description: The ability of 1,2,3-triazole derivatives according to the disclosure to kill cancer cells can be measured, e.g., by Trypan Blue Exclusion Assay which measured cell death by starvation due to the presence of the derivative (see EXAMPLE 4). The results obtained using this assay with some representative 1,2,3-triazole derivatives according to the disclosure are shown below in Table 4.
The effect of Derivative 1 on cancer cell viability was determined using the Trypan Blue Exclusion Test (Stober (2001) (Curr. Protoc. Immunol., May; Appendix 3:Appendix 3B. doi: 10.1002/0471142735.ima03bs21). The viability of Non-Small Lung Cancer Cells (NSLCs) was assessed over a period of 15 days after the promotion of coagulation with or without 200 μM of 1,2,3-triazole derivative 1 and with or without 2% human plasma. Fresh 2% FBS medium corresponding to each condition was added every 3 days. Cell death was analyzed using Trypan blue staining. 2% FBS medium was used as control. Some representative results are shown in FIGS. 4A-4F.

[4] = 96 h, NSLCs, 20% plasma, 20 mM calcium medium, wound closure over 4 days (FIG. 3), read-out: IC50 from dose response curve, cell migration
[5] = wound healing assay, dose-response curve, read-out: Anti-Cancer Activity (Inhibition of Cancer Cell Migration) IC50

| IC50 [1, 5] [µM] | IC50 [2] [µM] | IC50 [3] [µM] | Structure (SMILES) | also measured |
| --- | --- | --- | --- | --- |
|  |  |  | CCCCCC(=O)O [CA, Caproic Acid, reference compound] | IC50 ([1]; 96 h, read-out: IC50 from dose response curve, cell migration): 1340 µM; concentration at which cell migration was completely impaired ([1]; NSLCs, 20% plasma): 1400 µM |
| 120 |  |  | O=c1[nH]nc(-c2cn(C3CCNCC3)nn2)o1 [Derivative 1] | IC50 ([2]; listed as 1): 50 µM; inhibition of fibrinolysis mediated by tPA (in words) [2]: completely inhibit fibrinolysis; IC50 [1, 4]: 96.1 µM; concentration at which cell migration was completely impaired ([1]; NSLCs, 20% plasma): 100 µM; potency relative to CA in inhibition of migration of cancer cells ([1]; from IC50 values, vs Caproic Acid): > 10 ×; potency relative to TNA in inhibition of migration of cancer cells ([1]; from IC50 values, vs Tranexamic Acid): > 4 ×; cell death by Trypan blue staining after 7 days (in words) ([3]; 200 μM, plasma conditions, 7 days, vs plasma alone (FIG. 4C)): even more significant; cell death by Trypan blue staining after 15 days (in words) ([3]; 200 μM, plasma conditions, 15 days, vs FBS and plasma alone (FIG. 4F)): increased cell death; IC50 ([3]; listed as 1): 250 µM |
| 350 | 200 | 550 | NCCCn1cc(-c2n[nH]c(=O)o2)nn1 [Derivative 2] |  |
| 230 | 180 | 410 | NNC(=O)c1cn(C2CCNCC2)nn1 [Derivative 3] |  |
| 1200 | 800 | 2100 | NCCCn1cc(C(=O)NN)nn1 [Derivative 4] |  |
|  |  |  | O=c1[nH]c(-c2cn(C3CCNCC3)nn2)no1 [Derivative 5] | IC50 ([2]; listed as 5): 35 µM; inhibition of fibrinolysis mediated by tPA (in words) [2]: completely inhibit fibrinolysis; IC50 ([1]; wound healing assay, dose-response curve, listed as 5, read-out: Anti-Cancer Activity (Inhibition of Cancer Cell Migration) IC50): 90 µM; IC50 ([3]; listed as 5): 150 µM |
| 650 | 375 | 800 | NCCCn1cc(-c2noc(=O)[nH]2)nn1 [Derivative 6] |  |
| 270 | 125 | 415 | NC(NO)c1cn(C2CCNCC2)nn1 (stereo not shown) [Derivative 7] | inhibition of fibrinolysis mediated by tPA (in words) [2]: completely inhibit fibrinolysis |
| 500 | 350 | 750 | NCCCn1cc(/C(N)=N/O)nn1 [Derivative 8] |  |
| 250 | 150 | 370 | N/C(Cc1cn(C2CCNCC2)nn1)=N/O [Derivative 10] |  |
| 510 | 325 | 680 | NCCCn1cc(C/C(N)=N\O)nn1 [Derivative 11] |  |
| 125 | 75 | 170 | NCCCn1cc(C(=O)O)nn1 [Derivative 13] |  |
| 250 | 130 | 450 | NCCCn1ccnn1 [Derivative 14] |  |
| 104 | 24 | 815 | NCCn1cc(C(=O)NN)nn1 [Derivative 15] |  |
| 250 | 58 | 430 | NNC(=O)c1cn(C2CCC(N)CC2)nn1 (stereo not shown) [Derivative 16] |  |
| 650 | 320 | 1350 | NC1CCC(n2cc(-c3n[nH]c(=O)o3)nn2)CC1 (stereo not shown) [Derivative 17] |  |

| IC50 [1, 5] [µM] | IC50 [2] [µM] | IC50 [3] [µM] | Structure (SMILES) | also measured |
| --- | --- | --- | --- | --- |
| 345 | 250 | 550 | NCCn1cc(-c2n[nH]c(=O)o2)nn1 [Derivative 18] |  |
| 610 | 375 | 880 | NC1CCC(n2cc(-c3noc(=O)[nH]3)nn2)CC1 (stereo not shown) [Derivative 19] |  |
| 87 | 15 | 210 | NCCn1cc(-c2noc(=O)[nH]2)nn1 [Derivative 20] |  |
| 100 | 35 | 150 | O=C(O)c1nnc(-c2cn(C3CCNCC3)nn2)o1 [Derivative 21] |  |
| 120 | 50 | 210 | NCCCn1cc(-c2nnc(C(=O)O)o2)nn1 [Derivative 22] |  |
| 89 | 35 | 210 | NC1CCC(n2cc(-c3nnc(C(=O)O)o3)nn2)CC1 (stereo not shown) [Derivative 23] |  |
| 620 | 315 | 810 | NCCn1cc(-c2nnc(C(=O)O)o2)nn1 [Derivative 24] |  |
| 420 | 205 | 610 | N/C(=N\O)c1cn(C2CCC(N)CC2)nn1 (stereo not shown) [Derivative 25] |  |
| 258 | 153 | 470 | NCCn1cc(/C(N)=N/O)nn1 [Derivative 26] |  |
| 310 | 189 | 480 | N/C(Cc1cn(C2CCC(N)CC2)nn1)=N/O (stereo not shown) [Derivative 27] |  |
| 69 | 23 | 140 | NCCn1cc(C/C(N)=N\O)nn1 [Derivative 28] |  |
| 129 | 67 | 218 | NC1CCC(n2cc(C(=O)O)nn2)CC1 (stereo not shown) [Derivative 29] |  |
| 520 | 370 | 710 | NCCn1cc(C(=O)O)nn1 [Derivative 30] |  |
| 190 | 74 | 310 | NC1CCC(n2ccnn2)CC1 (stereo not shown) [Derivative 31] |  |
|  |  |  | NC[C@H]1CC[C@H](C(=O)O)CC1 [TNA, Tranexamic Acid, reference compound] | IC50 [1, 4]: 438 µM; concentration at which cell migration was completely impaired ([1]; NSLCs, 20% plasma): 250 µM |

Source: US20210317113A1, “1,2,3-TRIAZOLE DERIVATIVES AND USES THEREOF” (Alxerion Biotech LLC, priority 2020, published 2021)
